Results from US20220220106A1, “QUINOLINE COMPOUNDS AND PHARMACEUTICAL COMPOSITIONS AND USES THEREOF” (Academy of Military Medical Sciences, priority 2019, published 2022).

Experiments:
[1] = system: RD cells; test: Detection of cytotoxicity in RD cells (CellTiter-Glo); type: cell-based; conditions: 4 days, CellTiter-Glo, median toxic dose
Procedure, shortened: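 RD cells (1*10^5/mL) cultured 4 days at 37 °C with 10 compound concentrations from 3-fold dilution of a 400 μM pretreatment solution, final being 0.5 times that. Viability by CellTiter-Glo luminescence versus cell control; TD50 from S-curve fit; SI=TD50/IC50.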

[2] = target: T1, mTOR kinase (Homo sapiens, UniProt P42345); test: In vitro inhibitory activity on mTOR kinase (TR-FRET, GFP-4E-BP1 substrate); type: biochemical; conditions: for IC50: 0.5 μg/mL mTOR, 0.4 μM GFP-4E-BP1, 3 μM ATP
T1 construct: purchased Thermo Fisher PV4753
Description: Preparation of Reaction Buffers:
Basic buffer composition: 50 mM (mmol/L) HEPES (pH 7.5), 1 mM EGTA, 0.01% Tween-20, 10 mM MnCl2, 2 mM DTT (diluted from 500 mM before used).
(2) mTOR kinase buffer solution: 1650 μL of 2.5×mTOR kinase buffer solution was composed of 1640.2 μL of 1× basic buffer and 9.8 μL of mTOR (0.21 mg/mL stock solution), and the final concentration was 0.5 μg/mL.
(3) Detection buffer solution: 3960 μL of 2× detection buffer solution was composed of 3797.1 μL of TR-FRET buffer diluent (purchased from Thermo Fisher, catalog number: PV3574), 4.5 μL of Tb-anti-p4E-BP1 antibody (3.49 μM stock solution, purchased from Thermo Fisher, catalog number: PV4757) and 158 μL of EDTA (500 mM stock solution), and the final concentrations were 2 nM Tb-anti-p4E-BP1 antibody and 10 mM EDTA.
(1) 20 μL of 100% DMSO solution containing 5 mM compound to be tested was added to a 96-well plate.
(2) The compound was serially diluted 3 times in DMSO.
(3) 1 μL of the compound in the previous step was taken, diluted with 19 μL of mTOR kinase buffer, and transferred to another 96-well plate.
(4) 4 μL of mTOR kinase solution (purchased from Thermo Fisher, catalog number: PV4753) was added to a 384-well plate.
(5) 2 μL of the compound in G was taken out and added to the 384-well plate with mTOR kinase, and incubated at room temperature for 15 minutes.
(6) 4 μL of substrate solution was added to initiate the reaction.
The final concentrations of mTOR reaction solution were: 0.5 μg/mL mTOR, 0.4 μM GFP-4E-BP1, 3 μM ATP.
The final concentration of the DMSO solution was 1%.
(7) Incubation was performed for 60 minutes at room temperature.
(8) 10 μL of detection buffer was added. The final concentrations were 2 nM Tb-anti-p4E-BP1 antibody and 10 mM EDTA.
(9) Incubation was performed for 30 minutes at room temperature.
(10) TR-FRET value was read on MD5 multi-mode plate reader (Molecular Devices). The excitation wavelength was 340 nm, the emission wavelength 1 was 495 nm, and the emission wavelength 2 was 520 nm. The ratio of 520 nm/495 nm readings was calculated as TR-FRET value.
IC50 of compound was fitted by nonlinear regression equation:
Y=Bottom+(Top-Bottom)/(1+10^((LogIC50-X)*HillSlope));
X: common logarithm value of compound concentration; Y: TR-FRET value (520 nm/495 nm).

[3] = system: Enterovirus 71 (EV71) H strain; test: In vitro anti-EV71 activity (antiviral activity in RD cells, CellTiter-Glo); type: cell-based; conditions: for IC50: Enterovirus A, 96 h, EV71 H strain, RD cells, 4 days, CellTiter-Glo, read-out: IC50; for in vitro anti-EV71 activity, in words: EV71, RD cells
Procedure, shortened: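 RD cells infected with 100TCID50 EV71 in DMEM+2% FBS, with compound in 10-point three-fold dilutions, cultured 4 days at 37° C. Cell viability by CellTiter-Glo luminescence; inhibition rate relative to cell control fitted to S-curve for IC50. TD50 derived likewise; SI=TD50/IC50.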

[4] = target: T2, mTORC2 (Homo sapiens, UniProt P42345); test: Western blot, phosphorylation of Ser473 of Akt in RD cells (mTORC2 inhibition); type: cell-based; conditions: 20 μM, 2 hours, Western blot (FIG. 1)
T2 construct: endogenous in cells; host or cells: RD cells
Description: (§1) In order to test the inhibitory activity of the synthesized compounds on the two mTOR complexes, the inhibitory activity experiments of mTORC1 and mTORC2 were carried out. Since mTORC1 and mTORC2 exerted their function by activating the phosphorylation of downstream substrates, the inhibitory activity of the compounds on mTORC1 and mTORC2 could be determined by detecting the phosphorylation levels of the Thr389 site of mTORC1 downstream substrate p70S6K1 and the Ser473 site of mTORC2 downstream substrate Akt.
(§2) Pretreatment of Compound:
(§3) (1) RD cells were cultured in DMEM medium containing 10% FBS and 1×PS (penicillin and streptomycin were at concentrations 100 IU and 100 μg/mL, respectively) at 37° C. and 5% CO2.
(§4) (2) The RD cells (5×10^5 cells/2 mL medium) were inoculated into a 6-well plate and incubated at 37° C. and 5% CO2 for 24 hours.
(§5) (3) The cells were washed once with PBS, and the cells were cultured in serum-free medium without nutrients overnight.
(§6) (4) Formulation of compounds: […]
(§7) Preparation of insulin medium: Insulin was diluted in DMEM medium containing 10% FBS and 1×PS so that the final concentration of insulin was 167 nM.
(§8) Pretreatment of compound to be tested: The compound was dissolved in DMSO so that the concentration of the test compound was 20 mM, and the compound was diluted in 167 nM insulin medium to reach a concentration of 20 μM.
(§9) Preparation of rapamycin solution: Rapamycin was dissolved in DMSO to a concentration of 10 mM, and the rapamycin was diluted in 167 nM insulin medium to reach a concentration of 20 μM.
(§10) (5) The serum-free medium in each well was removed.
(§11) (6) 2 mL of complete medium containing DMSO was added to each well as a control carrier. The final concentration of DMSO was 0.2%.
(§12) (7) 2 mL of 20 μM rapamycin solution and 20 μM the compound to be tested were added to the designated wells, respectively. The final concentration of DMSO was 0.2%.
(§13) (8) The cells were incubated for 2 hours at 37° C. and 5% CO2.
(§14) Protein extraction and concentration determination:
(§15) (1) The cells were washed once with refrigerated PBS, and then the PBS was discarded.
(§16) (2) 150 μL of cell extraction buffer (RIPA, […], catalog number: C1053) was transferred into each well to lyse the cells, and then the resulting cell solution were incubated on ice for 30 minutes.
(§17) (3) Centrifugation was performed at 14000 rpm (13000× g) for 30 minutes at 4° C.
(§18) (4) The supernatant was transferred into a new eppendorf tube, and the cell lysate was stored at −80° C. before testing.
(§19) (5) The protein concentration was determined by BCA method.
(§20) Preparation of Buffer Solutions:
(§21) (1) 100× Protease inhibitor (Beyotime, catalog number: P1005): 1 mL of redistilled water was added to the protease inhibitor and stirred gently until the solid was completely dissolved.
(§22) (2) Lysis Buffer: […] of 100× protease inhibitor and 2× phosphatase inhibitor Cocktails PhosSTOP (Beyotime, catalog number: P1082) were added to 100 mL of the cell extract, and stirred gently until it was completely dissolved.
(§23) (3) Electrophoresis Running Buffer:
(§24) 10×MOPS buffer: 52.33 g of MOPS, 30.29 g of Tris base, 10 mL of 0.5 mol/L EDTA (pH 8.5) and 5 g of SDS was dissolved in 400 mL of redistilled water, stirred to dissolve, and the pH was adjusted to 7.5, then redistilled water was added again to reach a volume of 500 mL; 1×MOPS: 100 mL of 10×MOPS was diluted with redistilled water to 1000 mL.
(§25) (4) 1× Transfer Buffer: […] of 10× transfer buffer (144 g of glucine, 30.3 g of trisbase, and distilled water were mixed to reach a volume of 1 L) and 400 mL of methanol were dissolved in 1500 mL of redistilled water, and then the redistilled water was added to reach a volume of 2000 mL. […]

[5] = target: T3, mTORC1 (Homo sapiens, UniProt P42345); test: Western blot, phosphorylation of Thr389 of p70S6K1 in RD cells (mTORC1 inhibition); type: cell-based; conditions: 20 μM, 2 hours, Western blot (FIG. 1)
T3 construct: endogenous in cells; host or cells: RD cells
Description: as §1, §2, §3, §4, §5, §6, §7, §8, §9, §10, §11, §12, §13, §14, §15, §16, §17, §18, §19, §20, §21, §22, §23, §24, §25

| Compound | TD50 [1] [µM] | IC50 [2] [nM] | IC50 [3] [nM] | melting point [°C] | inhibitory activity on mTOR kinase, in words [2] | phosphorylation expression level of Akt [4] | p70 phosphorylation expression level [5] | in vitro anti-EV71 activity, in words [3] |
| --- | --- | --- | --- | --- | --- | --- | --- | --- |
| Cc1noc(C)c1-c1ccc2ncc3ccc(=O)n(-c4cccc(C(F)(F)F)c4)c3c2c1 [HTL-7-12, 9-[4-(3,5-dimethyl)isoxazolyl]-2-oxo-1-[3-(trifluoromethyl)phenyl]-1,2-dihydrobenzo[h][1,6]naphthyridine] | >200 | 1210 | 36900 ± 410 | 121 to 122 |  |  |  |  |
| COc1ncccc1-c1ccc2ncc3ccc(=O)n(-c4cccc(C(F)(F)F)c4)c3c2c1 [HTL-7-02, 9-[3-(2-methoxy)pyridyl]-2-oxo-1-[3-(trifluoromethyl)phenyl]-1,2-dihydrobenzo[h][1,6]naphthyridine] | >200 | 974 | > 200000 |  | moderate inhibitory activity |  |  |  |
| CC(C)C(=O)Nc1ccc(-c2ccc3ncc4ccc(=O)n(-c5cccc(C(F)(F)F)c5)c4c3c2)cn1 [HTL-7-07, 9-[3-(2-isobutyrylamino)pyridyl]-2-oxo-1-[3-(trifluoromethyl)phenyl]-1,2-dihydrobenzo[h][1,6]naphthyridine] | 0.46 ± 0.03 |  | 380 ± 390 |  |  | significantly down-regulate | significantly down-regulate |  |
| NC(=O)NC/C=C/c1ccc2ncc3oc(=O)n(-c4cccc(C(F)(F)F)c4)c3c2c1 [HTL-6-34, (E)-8-(3-ureido-propenyl)-1-[3-(trifluoromethyl)phenyl]oxazolo[5,4-c]quinolin-2(1H)-one] | 66.64 ± 1.17 | 849 | > 200000 |  | moderate inhibitory activity |  |  |  |
| CC(=O)/C=C/c1cnc2ccc(-c3ccc(N)cc3)cc2c1Nc1cccc(C(F)(F)F)c1 [HTL-2-35, (E)-6-(4-amino)phenyl-4-[3-(trifluoromethyl)phenyl]aminoquinoline-3-butenone] | 5.14 ± 1.92 | 7770 | 3700 ± 10 | 183 to 185 | weak inhibitory activity |  |  | moderate anti-EV71 activity |
| Cc1ccc(-c2ccc3ncc4oc(=O)n(-c5cccc(C(F)(F)F)c5)c4c3c2)cn1 [HTL-5-23, 8-[3-(6-methyl)pyridyl]-1-[3-(trifluoromethyl)phenyl]oxazolo[5,4-c] quinolin-2(1H)-one] | 16.88 ± 5.46 | 257 | 4780 ± 1730 | 299 to 300 | moderate inhibitory activity |  |  | moderate inhibitory activity |
